Laboratory results published in ChEMBL document CHEMBL4673219, “Novel 5,6-disubstituted pyrrolo[2,3-d]pyrimidine derivatives as broad spectrum antiproliferative agents: Synthesis, cell based assays, kinase profile and molecular docking study” (Bioorg Med Chem, 2018).
Where “and” joins values, the source holds several entries; their conditions need not be identical. Equal entries are not always repeated.

Key:
[1] = test system: SNB-19; test: Growth inhibition of human SNB-19 cells incubated for 48 hrs by sulforhodamine B assay; assay type: functional
[2] = test system: OVCAR-4; test: Growth inhibition of human OVCAR-4 cells assessed as growth percentage at 1 uM incubated for 48 hrs by sulforhodamine B assay relative to control; assay type: functional; conditions: read-out: Activity
[3] = test system: IGROV-1; test: Growth inhibition of human IGROV-1 assessed as growth percent at 100 uM incubated for 48 hrs by sulforhodamine B assay relative to control; assay type: functional; conditions: read-out: Activity
[4] = test system: MDA-MB-468; test: Growth inhibition of human MDA-MB-468 cells assessed as growth percentage at 10 uM incubated for 48 hrs by sulforhodamine B assay relative to control; assay type: functional; conditions: read-out: Activity
[5] = test system: NCI-H460; test: Growth inhibition of human NCI-H460 cells assessed as growth percentage at 0.01 uM incubated for 48 hrs by sulforhodamine B assay relative to control; assay type: functional; conditions: read-out: Activity
[6] = test system: RPMI-8226; test: Growth inhibition of human RPMI-8226 cells assessed as growth percentage at 0.1 uM incubated for 48 hrs by sulforhodamine B assay relative to control; assay type: functional; conditions: read-out: Activity
[7] = test system: RPMI-8226; test: Growth inhibition of human RPMI-8226 cells assessed as growth percentage at 0.01 uM incubated for 48 hrs by sulforhodamine B assay relative to control; assay type: functional; conditions: read-out: Activity
[8] = test system: NCI-H23; test: Growth inhibition of human NCI-H23 cells assessed as growth percentage at 0.01 uM incubated for 48 hrs by sulforhodamine B assay relative to control; assay type: functional; conditions: read-out: Activity
[9] = test system: UACC-62; test: Growth inhibition of human UACC-62 cells assessed as growth percentage at 10 uM incubated for 48 hrs by sulforhodamine B assay relative to control; assay type: functional; conditions: read-out: Activity
[10] = test system: HOP-62; test: Growth inhibition of human HOP-62 cells assessed as growth percentage at 10 uM incubated for 48 hrs by sulforhodamine B assay relative to control; assay type: functional; conditions: read-out: Activity
[11] = test system: MDA-MB-435; test: Growth inhibition of human MDA-MB-435 cells incubated for 48 hrs by sulforhodamine B assay; assay type: functional; conditions: for TGI: MDA-MB-435; for CC50: MDA-MB-435, read-out: LC50 (the source's name)
[12] = test system: M14; test: Growth inhibition of human M14 cells assessed as growth percentage at 0.1 uM incubated for 48 hrs by sulforhodamine B assay relative to control; assay type: functional; conditions: read-out: Activity
[13] = test system: OVCAR-5; test: Growth inhibition of human OVCAR-5 cells incubated for 48 hrs by sulforhodamine B assay; assay type: functional
[14] = test system: COLO 205; test: Growth inhibition of human COLO 205 cells assessed as growth percentage at 0.1 uM incubated for 48 hrs by sulforhodamine B assay relative to control; assay type: functional; conditions: read-out: Activity
[15] = test system: MDA-MB-231; test: Growth inhibition of human MDA-MB-231/ATCC cells assessed as growth percentage at 0.1 uM incubated for 48 hrs by sulforhodamine B assay relative to control; assay type: functional; conditions: read-out: Activity
[16] = test system: MOLT-4; test: Growth inhibition of human MOLT-4 cells assessed as growth percentage at 0.01 uM incubated for 48 hrs by sulforhodamine B assay relative to control; assay type: functional; conditions: read-out: Activity
[17] = test system: OVCAR-8; test: Growth inhibition of human OVCAR-8 cells assessed as growth percentage at 10 uM incubated for 48 hrs by sulforhodamine B assay relative to control; assay type: functional; conditions: read-out: Activity
[18] = test system: NCI/ADR-RES; test: Growth inhibition of human NCI/ADR-RES cells assessed as growth percentage at 100 uM incubated for 48 hrs by sulforhodamine B assay relative to control; assay type: functional; conditions: read-out: Activity
[19] = test system: RPMI-8226; test: Growth inhibition of human RPMI-8226 cells incubated for 48 hrs by sulforhodamine B assay; assay type: functional
[20] = test system: MDA-MB-435; test: Growth inhibition of human MDA-MB-435 cells assessed as growth percentage at 10 uM incubated for 48 hrs by sulforhodamine B assay relative to control; assay type: functional; conditions: read-out: Activity
[21] = test system: Malme-3M; test: Growth inhibition of human Malme-3M cells assessed as growth percentage at 0.1 uM incubated for 48 hrs by sulforhodamine B assay relative to control; assay type: functional; conditions: read-out: Activity
[22] = test system: BT-549; test: Growth inhibition of human BT-549 cells assessed as growth percentage at 0.01 uM incubated for 48 hrs by sulforhodamine B assay relative to control; assay type: functional; conditions: read-out: Activity
[23] = test system: SK-OV-3; test: Growth inhibition of human SK-OV-3 cells assessed as growth percentage at 0.1 uM incubated for 48 hrs by sulforhodamine B assay relative to control; assay type: functional; conditions: read-out: Activity
[24] = test system: T47D; test: Growth inhibition of human T47D cells assessed as growth percentage at 1 uM incubated for 48 hrs by sulforhodamine B assay relative to control; assay type: functional; conditions: read-out: Activity
[25] = test system: SK-BR-3; test: Antiproliferative activity against human SK-BR-3 cells assessed as cell growth inhibition at 10 uM measured after 72 hrs by MTT assay relative to control; assay type: functional; conditions: read-out: GI
[26] = test system: HCT-116; test: Growth inhibition of human HCT-116 cells assessed as growth percentage at 0.01 uM incubated for 48 hrs by sulforhodamine B assay relative to control; assay type: functional; conditions: read-out: Activity
[27] = test system: HCC 2998; test: Growth inhibition of human HCC 2998 cells assessed as growth percentage at 10 uM incubated for 48 hrs by sulforhodamine B assay relative to control; assay type: functional; conditions: read-out: Activity
[28] = test system: HOP-62; test: Growth inhibition of human HOP-62 cells assessed as growth percentage at 100 uM incubated for 48 hrs by sulforhodamine B assay relative to control; assay type: functional; conditions: read-out: Activity
[29] = test system: HOP-62; test: Growth inhibition of human HOP-62 cells assessed as growth percentage at 0.01 uM incubated for 48 hrs by sulforhodamine B assay relative to control; assay type: functional; conditions: read-out: Activity
[30] = test system: SR; test: Growth inhibition of human SR cells assessed as growth percentage at 10 uM incubated for 48 hrs by sulforhodamine B assay relative to control; assay type: functional; conditions: read-out: Activity
[31] = test system: MCF7; test: Growth inhibition of human MCF7 cells assessed as growth percentage at 0.1 uM incubated for 48 hrs by sulforhodamine B assay relative to control; assay type: functional; conditions: read-out: Activity
[32] = test system: K562; test: Growth inhibition of human K562 cells incubated for 48 hrs by sulforhodamine B assay; assay type: functional
[33] = test system: HOP-92; test: Growth inhibition of human HOP-92 cells incubated for 48 hrs by sulforhodamine B assay; assay type: functional
[34] = test system: Malme-3M; test: Growth inhibition of human Malme-3M cells assessed as growth percentage at 10 uM incubated for 48 hrs by sulforhodamine B assay relative to control; assay type: functional; conditions: read-out: Activity
[35] = test system: NCI-H322M; test: Growth inhibition of human NCI-H322M cells assessed as growth percentage at 100 uM incubated for 48 hrs by sulforhodamine B assay relative to control; assay type: functional; conditions: read-out: Activity
[36] = Cytotoxicity against human HFF-1 cells assessed as cell growth inhibition by MTT assay; assay type: cell-based
[37] = test system: NCI-H322M; test: Growth inhibition of human NCI-H322M cells assessed as growth percentage at 0.01 uM incubated for 48 hrs by sulforhodamine B assay relative to control; assay type: functional; conditions: read-out: Activity
[38] = test system: SK-MEL-5; test: Growth inhibition of human SK-MEL-5 cells assessed as growth percentage at 10 uM incubated for 48 hrs by sulforhodamine B assay relative to control; assay type: functional; conditions: read-out: Activity

SMILES: Nc1nc2[nH]c(CN3CCN(c4cc(Cl)cc(Cl)c4)CC3)c(CN3CCN(c4cc(Cl)cc(Cl)c4)CC3)c2c(=O)[nH]1
- GI50 [1]: 1770 nM
- TGI [1]: 3670 nM
- growth at 1 µM [2]: 83%
- growth at 100 µM [3]: -48%
- growth at 10 µM [4]: 40.1%
- growth at 0.01 µM [5]: 105%
- growth at 0.1 µM [6]: 102%
- growth at 0.01 µM [7]: 102%
- growth at 0.01 µM [8]: 104%
- growth at 10 µM [9]: 77.8%
- growth at 10 µM [10]: 84.2%
- TGI ([11]; Homo sapiens): 3040 nM
- GI50 ([11]; Homo sapiens, MDA-MB-435, 48 h): 1620 nM
- CC50 ([11]; Homo sapiens): 5720 nM
- growth at 0.1 µM [12]: 98%
- GI50 [13]: 2640 nM
- TGI [13]: 9270 nM
- growth at 0.1 µM [14]: 101%
- growth at 0.1 µM [15]: 98%
- growth at 0.01 µM [16]: 100%
- growth at 10 µM [17]: 40.6%
- growth at 100 µM [18]: 55%
- TGI ([19]; Homo sapiens, RPMI-8226): 6920 nM
- GI50 ([19]; Homo sapiens, RPMI-8226, 48 h): 2410 nM
- growth at 10 µM [20]: 8.61%
- growth at 0.1 µM [21]: 90%
- growth at 0.01 µM [22]: 91%
- growth at 0.1 µM [23]: 103%
- growth at 1 µM [24]: 85%
- inhibition of growth at 10 µM [25]: 90%
- growth at 0.01 µM [26]: 100%
- growth at 10 µM [27]: 24%
- growth at 100 µM [28]: -38%
- growth at 0.01 µM [29]: 81%
- growth at 10 µM [30]: 12.1%
- growth at 0.1 µM [31]: 90%
- GI50 ([32]; Homo sapiens, K562, 48 h): 2330 nM
- GI50 ([33]; Homo sapiens, HOP-92): 1350 nM
- TGI ([33]; Homo sapiens, HOP-92, 48 h): 3540 nM
- growth at 10 µM [34]: 74.3%
- growth at 100 µM [35]: -54%
- GI50 [36]: > 10000 nM
- growth at 0.01 µM [37]: 102%
- growth at 10 µM [38]: 91%

SMILES: CCCCCCCC(=O)Nc1nc2[nH]c(CN3CCN(Cc4cccc(F)c4)CC3)c(CN3CCN(Cc4cccc(F)c4)CC3)c2c(=O)[nH]1
- GI50 [1]: 1560 nM
- LC50 (concentration killing 50% of cells) [1]: 6340 nM
- TGI [1]: 3140 nM
- growth at 1 µM [2]: 63%
- growth at 100 µM [3]: -70%
- growth at 10 µM [4]: -68.7%
- growth at 0.01 µM [5]: 94%
- growth at 0.1 µM [6]: 97%
- growth at 0.01 µM [7]: 101%
- growth at 0.01 µM [8]: 98%
- growth at 10 µM [9]: -93.9%
- growth at 10 µM [10]: -93.2%
- GI50 ([11]; 48 h): 320 nM
- TGI ([11]; Homo sapiens): 1240 nM
- GI50 ([11]; Homo sapiens, MDA-MB-435, 48 h): 317 nM
- CC50 ([11]; Homo sapiens): 3770 nM
- growth at 0.1 µM [12]: 94%
- GI50 [13]: 2640 nM
- TGI [13]: 9270 nM
- growth at 0.1 µM [14]: 92%
- growth at 0.1 µM [15]: 108%
- growth at 0.01 µM [16]: 95%
- growth at 10 µM [17]: -77.7%
- growth at 100 µM [18]: -86%
- GI50 ([19]; 48 h): 360 nM
- LC50 ([19]; 48 h): 100000 nM and > 1000 nM
- GI50 ([19]; Homo sapiens, RPMI-8226, 48 h): 363 nM
- growth at 10 µM [20]: -98.1%
- growth at 0.1 µM [21]: 96%
- growth at 0.01 µM [22]: 110%
- growth at 0.1 µM [23]: 94%
- growth at 1 µM [24]: 80%
- inhibition of growth at 10 µM [25]: 93.1%
- growth at 0.01 µM [26]: 95%
- growth at 10 µM [27]: -81.8%
- growth at 100 µM [28]: -95%
- growth at 0.01 µM [29]: 99%
- growth at 10 µM [30]: -52.8%
- growth at 0.1 µM [31]: 87%
- GI50 ([32]; 48 h): 210 nM
- LC50 (concentration killing 50% of cells) ([32]; 48 h): > 100000 nM
- TGI ([32]; 48 h): 550 nM
- GI50 ([32]; Homo sapiens, K562, 48 h): 205 nM
- LC50 (concentration killing 50% of cells) ([32]; Homo sapiens, K562, 48 h): 100000 nM
- TGI ([32]; Homo sapiens, K562, 48 h): 545 nM
- TGI ([33]; 48 h): 2420 nM and 820 nM
- GI50 ([33]; Homo sapiens, HOP-92): 1140 nM
- LC50 ([33]; Homo sapiens, HOP-92): 5140 nM
- growth at 10 µM [34]: -83.1%
- growth at 100 µM [35]: -82%
- GI50 [36]: > 10000 nM
- growth at 0.01 µM [37]: 94%
- growth at 10 µM [38]: 33.5%
